The subject of this assay is P388 leukemia ip, CD2F1 mice, survival T/C. Put plainly: NCI In Vivo Anticancer Drug Screen. Data for tumor model P388 Leukemia (intraperitoneal) in CD2F1 (CDF1) mice. Particulars: endpoint: median survival time, higher = longer survival. In short, it runs like this: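 Mice carrying the transplanted tumor received test compound or vehicle. Survival was recorded in each group, and the value is the treated-group measurement divided by that of the vehicle-treated control group.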

Where [1] appears, read: dose: 60.0 mg/kg/injection, schedule: Q01DX005 (ip), vehicle: saline.
Where [2] appears, read: dose: 120.0 mg/kg/injection, schedule: Q01DX005 (ip), vehicle: saline.
Where [3] appears, read: dose: 240.0 mg/kg/injection, schedule: Q01DX005 (ip), vehicle: saline.
[4] abbreviates: dose: 60.0 mg/kg/injection, schedule: Q01DX005 (ip), vehicle: saline with Tween-80.
[5] abbreviates: dose: 120.0 mg/kg/injection, schedule: Q01DX005 (ip), vehicle: saline with Tween-80.
The mark [6] stands for this setting: dose: 240.0 mg/kg/injection, schedule: Q01DX005 (ip), vehicle: saline with Tween-80.
[7] abbreviates: dose: 50.0 mg/kg/injection, schedule: Q04DX003 (ip), vehicle: saline with Tween-80.
[8] abbreviates: dose: 100.0 mg/kg/injection, schedule: Q04DX003 (ip), vehicle: saline with Tween-80.
Setting [9] is: dose: 200.0 mg/kg/injection, schedule: Q04DX003 (ip), vehicle: saline with Tween-80.

The record followed here is PubChem BioAssay AID330 (DTP/NCI, 2004).

The structures appear in SMILES notation. Several values for one entry are separate records, joined by “and”; a condition that tells them apart may be missing. Identical values can stand only once. Inconclusive results and toxic doses are left out.

For `COc1cc2c(c(OC)c1OC)-c1ccc(SC)c(=O)cc1[C@@H](NC1OCC(O)C(O)C1O)CC2` (stereo not given in full), the T/C (dose: 1.5 mg/kg/injection, schedule: Q01DX009 (ip), vehicle: water) is 105 % of control; the T/C (dose: 3.0 mg/kg/injection, schedule: Q01DX009 (ip), vehicle: water) is 117 % of control; the T/C (dose: 6.0 mg/kg/injection, schedule: Q01DX009 (ip), vehicle: water) was 113 % of control; the T/C (dose: 12.0 mg/kg/injection, schedule: Q01DX009 (ip), vehicle: water) is 121 % of control; the T/C (dose: 24.0 mg/kg/injection, schedule: Q01DX009 (ip), vehicle: other) is 152 % of control; the T/C (dose: 24.0 mg/kg/injection, schedule: Q01DX009 (ip), vehicle: water) is 123 % of control. In addition, where the note is “dose: 48.0 mg/kg/injection, schedule: Q01DX009 (ip), vehicle: other”, the T/C was 155 % of control.
With `COc1ccc(/C=C2\C=C3OCOC3=CC2=O)cc1`, the T/C reads like this: (dose: 2.5 mg/kg/injection, schedule: Q01DX009 (ip), vehicle: saline with Tween-80) 100 % of control; (dose: 5.0 mg/kg/injection, schedule: Q01DX009 (ip), vehicle: saline with Tween-80) 100 % of control; (dose: 10.0 mg/kg/injection, schedule: Q01DX009 (ip), vehicle: saline with Tween-80) 100 % of control.
Take `CCCCCCCCCC(C)CC(=O)NCCCN(C)CCCCN(C)C` (stereo not given) (tested in a mixture with another compound): the T/C reads like this: (dose: 0.78 mg/kg/injection, schedule: Q01DX009 (ip), vehicle: saline with Tween-80) 91 % of control; (dose: 1.56 mg/kg/injection, schedule: Q01DX009 (ip), vehicle: saline with Tween-80) 94 % of control; (dose: 3.13 mg/kg/injection, schedule: Q01DX009 (ip), vehicle: saline with Tween-80) 97 % of control; (dose: 6.25 mg/kg/injection, schedule: Q01DX009 (ip), vehicle: saline with Tween-80) 100 % of control.
As for `O=C1C2CCCN2C(=S)N1c1ccc([N+](=O)[O-])cc1` (stereo not given), the T/C was 100 % of control (dose: 50.0 mg/kg/injection, schedule: Q01DX005 (ip), vehicle: Klucel (hydroxypropylcellulose) (HPC)); 100 % of control (dose: 100.0 mg/kg/injection, schedule: Q01DX005 (ip), vehicle: Klucel (hydroxypropylcellulose) (HPC)); 99 % of control (dose: 200.0 mg/kg/injection, schedule: Q01DX005 (ip), vehicle: Klucel (hydroxypropylcellulose) (HPC)).
For the molecule `O=S(O)CCCCSSCC(O)CO` (stereo not given), the T/C was 101 % of control (dose: 30.0 mg/kg/injection, schedule: Q01DX005 (ip), vehicle: saline); 111 % of control (dose: 50.0 mg/kg/injection, schedule: Q01DX005 (ip), vehicle: saline); 115 % of control under setting [1]; 115 % of control under setting [2]; 111 % of control (dose: 200.0 mg/kg/injection, schedule: Q01DX005 (ip), vehicle: saline); 117 % of control under setting [3].
As to `O=C(N/C(=C\c1ccc2c(c1)OCO2)c1nc2ccccc2s1)c1ccccc1`, the T/C is 107 % of control under setting [4], 121 % of control under setting [5] and 123 % of control under setting [6].
For the molecule `Cc1cc2c(C(C)C)c(O)c(O)cc2c(O)c1-c1c(C)cc2c(C(C)C)c(O)c(O)cc2c1O`, the T/C (dose: 12.5 mg/kg/injection, schedule: Q04DX003 (ip), vehicle: saline with Tween-80) is 95 % of control; the T/C (dose: 25.0 mg/kg/injection, schedule: Q04DX003 (ip), vehicle: saline with Tween-80) is 100 % of control; the T/C under setting [7] was 104 % of control.
Turning to `O=C1C2=C(Nc3cc([N+](=O)[O-])ccc3N2)OC1c1cccc([N+](=O)[O-])c1` (stereo not given), the T/C by setting is: (dose: 60.0 mg/kg/injection, schedule: Q01DX005 (ip), vehicle: Klucel (hydroxypropylcellulose) (HPC)) 97 % of control; (dose: 120.0 mg/kg/injection, schedule: Q01DX005 (ip), vehicle: Klucel (hydroxypropylcellulose) (HPC)) 96 % of control; (dose: 240.0 mg/kg/injection, schedule: Q01DX005 (ip), vehicle: Klucel (hydroxypropylcellulose) (HPC)) 102 % of control.
Take `CC(=O)n1c2ccccc2c2c(C)c3c[n+]([O-])ccc3c(C)c21`: the T/C is 100 % of control (dose: 12.5 mg/kg/injection, schedule: Q04DX002 (ip), vehicle: saline with Tween-80); 110 % of control (dose: 25.0 mg/kg/injection, schedule: Q04DX002 (ip), vehicle: saline with Tween-80); 122 % of control (dose: 50.0 mg/kg/injection, schedule: Q04DX002 (ip), vehicle: saline with Tween-80); 93 % of control (dose: 200.0 mg/kg/injection, schedule: Q04DX002 (ip), vehicle: saline with Tween-80).
For `CCCCCCCCC1CCC(=O)NC1=O` (stereo not given), the T/C reads like this: under setting [4], 112 % of control; under setting [5], 104 % of control; under setting [6], 93 % of control.
For the molecule `CC(=O)Nc1cccc([N+](=O)[O-])c1`, the T/C under setting [7] was 110 % of control, the T/C under setting [8] was 110 % of control and the T/C under setting [9] was 110 % of control.
Take `COc1ccc(-c2c(C#N)cnc(C)c2C)c(OCc2ccccc2)c1OC`: the T/C (dose: 12.5 mg/kg/injection, schedule: Q01DX009 (ip), vehicle: other) was 106 % of control; the T/C (dose: 25.0 mg/kg/injection, schedule: Q01DX009 (ip), vehicle: other) is 101 % of control; the T/C (dose: 50.0 mg/kg/injection, schedule: Q01DX009 (ip), vehicle: other) was 105 % of control; the T/C (dose: 100.0 mg/kg/injection, schedule: Q01DX009 (ip), vehicle: other) was 98 % of control; the T/C (dose: 200.0 mg/kg/injection, schedule: Q01DX009 (ip), vehicle: other) is 92 % of control.
Take `C(=C\c1ccco1)/c1ccnnc1`: the T/C was 97 % of control (dose: 12.5 mg/kg/injection, schedule: Q01DX009 (ip), vehicle: saline); 109 % of control (dose: 25.0 mg/kg/injection, schedule: Q01DX009 (ip), vehicle: saline); 108 % of control and 97 % of control (dose: 50.0 mg/kg/injection, schedule: Q01DX009 (ip), vehicle: saline).
For `N#Cc1nc(CC(=O)c2ccncc2)c(CC(=O)c2ccncc2)nc1C#N`, the T/C is 109 % of control under setting [1], 106 % of control under setting [2] and 97 % of control under setting [3].
Consider `O=C(O)C(=O)O.O=C(O)C(=O)O.O=C(O)C(=O)O.[Rh]`, for which, under “dose: 200.0 mg/kg/injection, schedule: Q04DX003 (ip), vehicle: water”, the T/C is 95 % of control.
As to `CN(C)c1ccc(C(=O)c2ccc(N(C)C)cc2)cc1`, the T/C runs as follows: (dose: 100.0 mg/kg/injection, schedule: Q01DX009 (ip), vehicle: saline with Tween-80) 100 % of control; (dose: 200.0 mg/kg/injection, schedule: Q01DX009 (ip), vehicle: saline with Tween-80) 112 % of control; (dose: 400.0 mg/kg/injection, schedule: Q01DX009 (ip), vehicle: saline with Tween-80) 116 % of control.
With `O=S(=O)(O)c1ccccc1O`, the T/C by setting is: (dose: 25.0 mg/kg/injection, schedule: Q01DX001 (ip), vehicle: saline with Tween-80) 111 % of control; (dose: 50.0 mg/kg/injection, schedule: Q01DX001 (ip), vehicle: saline with Tween-80) 98 % of control; (dose: 100.0 mg/kg/injection, schedule: Q01DX001 (ip), vehicle: saline with Tween-80) 99 % of control.
Turning to `CCOC(=O)C1(n2[nH]c(=O)n(-c3ccccc3)c2=O)CC(C)OC1=O` (stereo not given), the T/C was 94 % of control (dose: 50.0 mg/kg/injection, schedule: Q01DX009 (ip), vehicle: Klucel (hydroxypropylcellulose) (HPC)); 91 % of control (dose: 100.0 mg/kg/injection, schedule: Q01DX009 (ip), vehicle: Klucel (hydroxypropylcellulose) (HPC)); 91 % of control (dose: 200.0 mg/kg/injection, schedule: Q01DX009 (ip), vehicle: Klucel (hydroxypropylcellulose) (HPC)).
As to `CC(=O)[O][Hg][c]1cc(-c2ccc(N=Nc3c(S(=O)(=O)O)cc4cccc(N)c4c3O)cc2)ccc1N=Nc1c(S(=O)(=O)O)cc2cccc(N)c2c1O`, the T/C by setting is: (dose: 3.13 mg/kg/injection, schedule: Q04DX003 (ip), vehicle: saline with Tween-80) 90 % of control; (dose: 6.25 mg/kg/injection, schedule: Q04DX003 (ip), vehicle: saline with Tween-80) 95 % of control.
`CC(=O)OCc1ccc(Cl)c(Cl)c1`: the T/C reads like this: under setting [8], 100 % of control; under setting [9], 100 % of control; (dose: 400.0 mg/kg/injection, schedule: Q04DX003 (ip), vehicle: saline with Tween-80) 104 % of control.
Turning to `CCOC(=O)c1cc(/C=C/c2ccc(Cl)cc2)on1`, the T/C reads like this: under setting [4], 91 % of control; under setting [5], 90 % of control.
